Values of other authors, collected in patent US6841573B2, “Use of arachidonic acid as a method of increasing skeletal muscle mass” (Molecular Nutrition, priority 2002, dated 2005).

Assays:
intact rabbit muscle = conditions: unstimulated intact rabbit muscle, in-vitro
[1] = 14C-labeled arachidonic acid, human skeletal muscle and kidney homogenates
[2] = serum from forearm and kidney of human volunteers after direct infusion into brachial or renal artery
[3] = after oral 200 mg and 1.5 g supplemented arachidonic acid per day, human, drawn blood
cox-1 enzyme = target: T1, cox-1 enzyme (Homo sapiens, UniProt P23219); conditions: by inhibiting the normal post-exercise increase in PGF2alpha
T1 construct: host or cells: skeletal muscle in vivo (endogenous enzyme)

[4] = after administering the precursor

T1 sequence (P23219 24-599): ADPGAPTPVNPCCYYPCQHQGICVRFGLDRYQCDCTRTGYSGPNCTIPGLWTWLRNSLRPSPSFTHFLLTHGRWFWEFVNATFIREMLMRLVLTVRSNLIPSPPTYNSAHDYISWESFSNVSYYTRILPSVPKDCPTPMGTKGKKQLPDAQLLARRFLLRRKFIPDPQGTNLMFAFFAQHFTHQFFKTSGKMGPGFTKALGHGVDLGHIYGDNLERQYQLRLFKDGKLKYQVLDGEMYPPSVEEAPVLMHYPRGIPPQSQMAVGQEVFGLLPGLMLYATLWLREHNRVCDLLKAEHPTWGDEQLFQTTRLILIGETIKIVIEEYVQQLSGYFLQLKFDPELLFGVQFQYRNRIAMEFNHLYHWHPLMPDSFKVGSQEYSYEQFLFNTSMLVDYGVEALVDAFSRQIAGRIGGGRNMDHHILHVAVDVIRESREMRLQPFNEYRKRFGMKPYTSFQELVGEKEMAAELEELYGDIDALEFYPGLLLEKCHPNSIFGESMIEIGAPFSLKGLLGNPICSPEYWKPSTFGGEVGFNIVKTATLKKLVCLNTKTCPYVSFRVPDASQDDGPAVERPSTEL

SMILES | effect on rates of protein synthesis (intact rabbit muscle) | also measured
CCCCC/C=C\C\C=C/C=C/C=C/[C@@H](SC[C@H](NC(=O)CC[C@H](N)C(=O)O)C(=O)NCC(=O)O)[C@@H](O)CCCC(=O)O [leukotriene C4] | failed to do so | –
CCCCC[C@H](O)/C=C/[C@H]1C=CC(=O)[C@@H]1CCCCCCC(=O)O [prostaglandin A1] | increased rates of protein synthesis | –
CCCCC/C=C\C\C=C/C=C/C=C/[C@@H](SC[C@H](N)C(=O)NCC(=O)O)[C@@H](O)CCCC(=O)O [leukotriene D4] | failed to do so | –
CCCCC[C@H](O)/C=C/[C@H]1C(=O)C[C@H](O)[C@@H]1C/C=C\CCCC(=O)O [prostaglandin D2, PGD2] | failed to do so | –
CCCCC[C@H](O)/C=C/[C@H]1[C@H](O)CC(=O)[C@@H]1C/C=C\CCCC(=O)O [prostaglandin E2, PGE2] | failed to do so | –
CCCCC[C@H](O)/C=C/[C@@H]1[C@@H](C/C=C\CCCC(=O)O)[C@@H](O)C[C@H]1O [prostaglandin F2 alpha, PGF2alpha] | increased rates of protein synthesis | –
CCCCC/C=C\C/C=C\C/C=C\C/C=C\CCCC(=O)O [arachidonic acid] | – | prostaglandins produced during incubation [1]: PGD2, PGE2, PGF2 alpha and 6-keto-PGF1 alpha; labeled metabolites found in serum [2]: PGD2, PGE2, PGF2 alpha, 6-keto-PGF1 alpha and 13,14-dihydro-15-keto-PGE2 (Me) were all found; in-vitro secretion of LTB4 and PGE2 [3]: measurably increase
CC(=O)Nc1ccc(O)cc1 [acetaminophen] | – | effect on anabolic response of muscle to resistance exercise (cox-1 enzyme): profoundly diminish the anabolic response
C[C@]12CCC(=O)C=C1CC[C@@H]1[C@@H]2CC[C@]2(C)C(=O)CC[C@@H]12 [androstenedione] | – | period of subsequent decline of active hormone (testosterone) concentration [4]: three to four; time to peak concentration of active hormone (testosterone) [4]: ≤ 90 min
